# Measured values: patent US8143253B2, “Organic compounds” (Novartis AG, priority 2007, dated 2012)
# Tested on: dimethylnitrosamine induced liver fibrosis
# Experiment: not given
# Settings: rat, during the 3 weeks treatment; cited from earlier work
row,SMILES,side effects
1,c1ccc(-c2cc(-c3cn[nH]c3-c3ccccn3)ccn2)cc1 [GW6604],no obvious side effects

# Same assay, conditions: rat, given therapeutically; cited from earlier work
SMILES,inhibited extracellular matrix deposition [%],prevented death rate [%]
c1ccc(-c2cc(-c3cn[nH]c3-c3ccccn3)ccn2)cc1 [GW6604],60,40

# Molecular target: T1, human ALK5 (ALK5 T204D kinase domain) (Homo sapiens, UniProt P36897, T204D)
# T1 construct: The kinase domain of human ALK5 (amino acids 200-503) is fused to an N-terminal histidine tag; made in house; host or cells: insect cells (baculovirus)
# T1 sequence (P36897 200-503 T204D): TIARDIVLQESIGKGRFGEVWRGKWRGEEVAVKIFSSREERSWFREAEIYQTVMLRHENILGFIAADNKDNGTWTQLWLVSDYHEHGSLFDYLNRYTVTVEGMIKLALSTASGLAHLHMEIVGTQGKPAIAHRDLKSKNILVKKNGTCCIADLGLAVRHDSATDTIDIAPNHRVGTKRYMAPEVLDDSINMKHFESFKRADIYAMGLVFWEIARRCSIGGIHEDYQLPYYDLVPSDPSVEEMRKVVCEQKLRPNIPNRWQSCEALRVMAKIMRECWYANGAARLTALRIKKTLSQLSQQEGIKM
# Experiment: ALK5 kinase activity, radiolabelled phosphate [33P] incorporation into casein
# Format: biochemical
# Settings: casein substrate, 1 μM unlabelled ATP
# Protocol: The kinase activity of ALK5 is assessed by measuring radiolabelled phosphate [33P] incorporation in to the generic substrate, casein. The kinase domain of human ALK5 (amino acids 200-503) is fused to an N-terminal histidine tag. The kinase activity of ALK5 is rendered constitutive via point mutation at amino acid 204 (threonine to aspartate modification, ALK5 T204D) and the kinase construct is engineered to be expressed from a baculovirus expression construct in insect cells. The purified, recombinantly-expressed histidine-tagged ALK5 T204D protein is dissolved at 5.4 mg/ml in 50 mM Tris-HCl pH 8.0, 150 mM NaCl, 5 mM DTT. ALK5 T204D is dissolved to 2.5 μg/ml in assay buffer (Assay buffer: 20 mM Tris-HCl pH 7.4, 10 mM MgCl2, 2 mM MnCl2) on the day of use.
# Test compounds and reference compounds are dissolved in assay buffer without DTT containing 5% (v/v) DMSO. Stock solutions of test and reference compounds are diluted in assay buffer with DTT (1.25 mM) containing 4.5% (v/v) DMSO. 10 μl of test or reference compound are added to the corresponding wells of 96 well U-bottomed plate. Total enzyme activity is determined by measuring ALK5 T204D activity in the absence of ALK5 kinase inhibitor reference compounds. Non-specific binding (NSB) is determined by measuring the activity of ALK5 T204D in the presence of ALK5 kinase inhibitor reference compounds. 10 μl of dephosphorylated casein stock solution (dephosphorylated casein is dissolved in ddH2O at 20 mg/ml) is added per well (200 μg/well final assay concentration). 20 μl of ALK5 T204D (2.5 μg/ml solution) is added per well (50 ng/well final assay concentration). The plates are left to incubate at room temperature for 10 minutes.
# 10 μl of ATP mix is added to the well to initiate the reaction (0.66 nM [^33P]ATP/1 μM unlabelled ATP/well final assay concentration). The ATP mix is prepared as follows, unlabelled ATP (3 mM) is dissolved in ddH2O and pH adjusted to 7.4. The stock concentration of [^33P]ATP is 10 μCi/μl. The corresponding volume of [^33P]ATP is added to unlabelled ATP solution such that the final assay concentration per well is 0.1 μCi. Following addition of the ATP mix, the plates are incubated at room temperature for 50 minutes. The kinase reaction is terminated by the addition of 50 μL Stop Buffer (20 mM Tris-HCl pH 7.4, 10 mM EDTA).
# 75 μl/well from the reaction plate is transferred to a Multiscreen-IP plate (MultiScreen-IP plates are prepared by added 50 μL of 70% (v/v) ethanol per well and incubated for 5 minutes at room temperature. The ethanol is removed by aspiration via a MultiScreen HTS Vacuum Manifold unit (Millipore, Cat no: MSVMHT500). The plates are washed twice by adding 200 μl/well ddH2O). The MultiScreen-IP plate is incubated at room temperature for 30 minutes to allowing binding of casein to the plate. The MultiScreen-IP plates are washed three times by adding 200 μl/well 100 mM phosphoric acid solution and the gasket is carefully removed from the back of the MultiScreen-IP plate and the plate dried in the oven for 30 minutes. The MultiScreen-IP plate is backsealed, 50 μL of Microscint™ 20 is added, then the plates are topsealed and radiolabelled casein detected and quantified on a TopCount™ plate-reader using the ^33P scintillation protocol.
row,IC50 [nM],SMILES
1,141,"CCOC(=O)c1ccc(-c2cnn3c(-c4cccc(-n5cccn5)c4)cnc3c2)cc1 [Example 34, 4-[3-(3-Pyrazol-1-yl-phenyl)-imidazo[1,2-b]pyridazin-7-yl]-benzoic acid ethyl ester]"
2,203,"COc1cc(-c2cnc3cc(-c4cccnc4)cnn23)ccc1O [Example 20, 2-Methoxy-4-(7-pyridin-3-yl-imidazo[1,2-b]pyridazin-3-yl)-phenol]"
3,83,"NC(=O)c1cccc(-c2cnc3cc(-c4cccc(F)c4)cnn23)c1 [Example 24, 3-[7-(3-Fluoro-phenyl)-imidazo[1,2-b]pyridazin-3-yl]-benzamide]"
4,236,"CCCCNC(=O)c1cccc(-c2cnn3c(-c4ccnc(-c5ccccc5)c4)cnc3c2)c1 [Example 59, N-Butyl-3-[3-(2-Phenyl-pyridin-4-yl)-imidazo[1,2-b]pyridazin-7-yl]-benzamide]"

# The remaining lines, values behind:
row,SMILES,IC50 [nM]
1,"CNC(=O)c1cccc(-c2cnn3c(-c4ccnc(-c5ccccc5)c4)cnc3c2)c1 [Example 1, N-Methyl-3-[3-(2-phenyl-pyridin-4-yl)-imidazo[1,2-b]pyridazin-7-yl]-benzamide]",83
2,"c1cncc(-c2cnn3c(-c4cccc(-n5cccn5)c4)cnc3c2)c1 [Example 18, 3-(3-Pyrazol-1-yl-phenyl)-7-pyridin-3-yl-imidazo[1,2-b]pyridazine]",47
3,"Oc1cccc(-c2cnn3c(-c4cccc(-n5cccn5)c4)cnc3c2)c1 [Example 8, 3-[3-(3-Pyrazol-1-yl-phenyl)-imidazo[1,2-b]pyridazin-7-yl]-phenol]",24
4,"c1ccc(-c2cc(-c3cnc4cc(-c5ccncc5)cnn34)ccn2)cc1 [Example 10, 3-(2-Phenyl-pyridin-4-yl)-7-pyridin-4-yl-imidazo[1,2-b]pyridazine]",28
5,"CNC(=O)c1cccc(-c2cnn3c(-c4ccnc(-c5ccc(F)cc5)c4)cnc3c2)c1 [Example 6, 3-{3-[2-(4-Fluoro-phenyl)-pyridin-4-yl]-imidazo[1,2-b]pyridazin-7-yl}-N-methyl-benzamide]",139
6,"CS(=O)(=O)Nc1cccc(-c2cnn3c(-c4ccnc(-c5ccoc5)c4)cnc3c2)c1 [Example 14, N-{3-[3-(2-Furan-3-yl-pyridin-4-yl)-imidazo[1,2-b]pyridazin-7-yl]-phenyl}-methanesulfonamide]",42
